Reference: patent publication US11780849B2, “Imino sulfanone inhibitors of ENPP1” (Volastra Therapeutics, Inc., priority 2020, dated 2023)
Like-named read-outs stand apart in the source and are kept apart here.

What was measured:
ENPP-1 ECD [1] = target: T1, ENPP-1 ECD (Homo sapiens (Human), UniProt P22413); assay: Assay 1: inhibition of ENPP1 hydrolysis of 2′,3′-cGAMP (AMP-Glo, […] enzyme)
Experimental: Assay 1: Test compounds were plated in a 3× dilution scheme in a 384 well plate. […] AMP Detection solution (100 μL) was added to each well, the plate centrifuged and incubated for 60 min.

ENPP-1 ECD [2] = target: T1, ENPP-1 ECD; assay: Assay 2: inhibition of ENPP1 hydrolysis of 2′,3′-cGAMP (AMP-Glo, […] enzyme)
Experimental: Assay 2: Compared to the conditions in Assay 1, this assay has a larger dynamic range and ensures the system is under steady-state conditions by reducing the enzyme concentration in the assay.
Test compounds were plated in a 3× dilution scheme in a 384 well plate. […] AMP Detection solution (10 μL) was added to each well, the plate centrifuged and incubated for 60 min.

[3] = target: ENPP1 on MDA-MB-231 cells (Homo sapiens (Human), UniProt P22413); assay: Assay 3: inhibition of ENPP1 hydrolysis of AMP p-nitrophenyl ester on MDA-MB-231 cells
[4] = Assay 1 (IC50), ENPP1 hydrolysis of 2′,3′-cGAMP, AMP-Glo
[5] = Assay 1 (IC50), inhibition of ENPP1 hydrolysis of 2′,3′-cGAMP, no unit in Table 18 (Table 17 legend for this assay uses nM)
[6] = Assay 2 (KI), ENPP1 hydrolysis of 2′,3′-cGAMP, AMP-Glo, […] ENPP-1, 24 μM cGAMP
[7] = Assay 2 (KI), inhibition of ENPP1 hydrolysis of 2′,3′-cGAMP, no unit in Table 18 (Table 17 legend for this assay uses nM)
[8] = IC50 in Assay 1, […] ENPP-1 ECD, 24 μM 2,3-cGAMP, pH 8.0
[9] = read-out: Assay 1 (IC50), ENPP1 hydrolysis of 2′,3′-cGAMP, AMP-Glo
[10] = read-out: Assay 1 (IC50), inhibition of ENPP1 hydrolysis of 2′,3′-cGAMP, no unit in Table 18 (Table 17 legend for this assay uses nM)
[11] = read-out: Assay 2 (KI), ENPP1 hydrolysis of 2′,3′-cGAMP, AMP-Glo, […] ENPP-1, 24 μM cGAMP
[12] = read-out: Assay 2 (KI), inhibition of ENPP1 hydrolysis of 2′,3′-cGAMP, no unit in Table 18 (Table 17 legend for this assay uses nM)
[13] = read-out: Assay 3 (KI, app), apparent KI from IC50 via Cheng/Prusoff, pNP-AMP […], MDA-MB-231 cells, pH 7.4, 37° C., 3 h, unit inferred
[14] = KI in Assay 2, […] ENPP-1 ECD, 24 μM 2,3-cGAMP, pH 8.0, converted from IC50 via Cheng/Prusoff

T1 sequence (P22413 98-925): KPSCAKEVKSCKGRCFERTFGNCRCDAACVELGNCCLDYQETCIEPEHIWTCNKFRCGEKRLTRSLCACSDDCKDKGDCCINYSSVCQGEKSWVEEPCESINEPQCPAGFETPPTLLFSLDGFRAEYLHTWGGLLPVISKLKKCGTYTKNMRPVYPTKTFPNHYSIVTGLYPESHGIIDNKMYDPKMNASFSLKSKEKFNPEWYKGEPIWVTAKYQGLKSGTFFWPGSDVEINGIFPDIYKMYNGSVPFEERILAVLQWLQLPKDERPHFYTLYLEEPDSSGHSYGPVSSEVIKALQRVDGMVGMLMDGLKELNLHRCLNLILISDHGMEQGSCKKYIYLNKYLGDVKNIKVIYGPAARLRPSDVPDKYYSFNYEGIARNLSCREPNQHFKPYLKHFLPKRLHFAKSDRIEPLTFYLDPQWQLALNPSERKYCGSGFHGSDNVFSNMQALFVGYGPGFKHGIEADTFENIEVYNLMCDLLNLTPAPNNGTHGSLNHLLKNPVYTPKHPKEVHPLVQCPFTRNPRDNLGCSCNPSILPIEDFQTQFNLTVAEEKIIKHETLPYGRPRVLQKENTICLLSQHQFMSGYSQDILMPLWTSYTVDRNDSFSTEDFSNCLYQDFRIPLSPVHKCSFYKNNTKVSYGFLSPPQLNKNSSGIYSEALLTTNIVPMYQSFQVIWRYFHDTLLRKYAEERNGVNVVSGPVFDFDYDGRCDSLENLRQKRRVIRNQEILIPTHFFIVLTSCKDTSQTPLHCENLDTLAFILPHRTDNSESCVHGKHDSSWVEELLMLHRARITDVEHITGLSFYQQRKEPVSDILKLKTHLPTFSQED
Chain of ENPP1 on MDA-MB-231 cells (P22413 whole entry): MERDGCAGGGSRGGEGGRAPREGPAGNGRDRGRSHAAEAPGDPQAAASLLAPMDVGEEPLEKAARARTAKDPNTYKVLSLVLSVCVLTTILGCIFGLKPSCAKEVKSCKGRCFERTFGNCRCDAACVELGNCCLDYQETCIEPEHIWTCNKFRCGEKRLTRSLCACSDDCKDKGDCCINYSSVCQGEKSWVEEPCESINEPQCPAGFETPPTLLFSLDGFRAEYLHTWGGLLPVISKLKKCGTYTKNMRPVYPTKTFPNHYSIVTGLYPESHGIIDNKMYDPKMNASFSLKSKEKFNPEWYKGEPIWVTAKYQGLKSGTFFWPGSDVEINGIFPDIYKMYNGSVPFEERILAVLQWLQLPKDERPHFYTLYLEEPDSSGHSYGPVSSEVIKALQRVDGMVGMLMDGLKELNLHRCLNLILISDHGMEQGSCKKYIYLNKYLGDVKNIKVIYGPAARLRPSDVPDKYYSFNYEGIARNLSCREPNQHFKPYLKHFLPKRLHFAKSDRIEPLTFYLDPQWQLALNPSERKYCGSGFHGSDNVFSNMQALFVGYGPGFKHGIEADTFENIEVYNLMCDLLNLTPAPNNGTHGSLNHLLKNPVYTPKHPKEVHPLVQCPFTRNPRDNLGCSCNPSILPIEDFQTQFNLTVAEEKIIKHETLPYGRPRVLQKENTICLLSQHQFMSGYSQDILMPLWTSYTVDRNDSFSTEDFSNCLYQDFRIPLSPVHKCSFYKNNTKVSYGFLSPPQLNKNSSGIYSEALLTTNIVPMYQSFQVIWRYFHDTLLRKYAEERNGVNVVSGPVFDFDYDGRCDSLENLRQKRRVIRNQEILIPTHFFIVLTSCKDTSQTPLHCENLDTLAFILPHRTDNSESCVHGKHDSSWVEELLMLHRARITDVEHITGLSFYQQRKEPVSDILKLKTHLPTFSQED

| Compound | IC50 (ENPP-1 ECD [1]; [4]) [nM] | IC50 (ENPP-1 ECD [1]; [5]) [nM] | Ki (ENPP-1 ECD [2]; [6]) [nM] | Ki (ENPP-1 ECD [2]; [7]) [nM] | Ki [3] [nM] | IC50 (ENPP-1 ECD [1]; [8]) [nM] | IC50 (ENPP-1 ECD [1]; [9]) [nM] | Ki (ENPP-1 ECD [1]) [nM] | IC50 (ENPP-1 ECD [1]; [10]) [nM] | Ki (ENPP-1 ECD [2]; [11]) [nM] | Ki (ENPP-1 ECD [2]; [12]) [nM] | Ki [3, 13] [nM] | Ki (ENPP-1 ECD [2]; [14]) [nM] |
| --- | --- | --- | --- | --- | --- | --- | --- | --- | --- | --- | --- | --- | --- |
| COc1cc2nccc(OCc3ccc(S(C)(=N)=O)cc3)c2cc1OC (stereo not shown) [Compound 138, (4-{[(6,7-dimethoxyquinolin-4-yl)oxy]methyl}phenyl)(imino)methyl-λ^6-sulfanone] | 10 to 1000 | 37 | 3 to 300 | 4.6 | 140 |  |  |  |  |  |  |  |  |
| COc1ccc2c(-c3ccc4c(c3)CN(S(C)(=N)=O)CC4)ccnc2c1 (stereo not shown) [Compound 52, 7-methoxy-4-(2-(S-methylsulfonimidoyl)-1,2,3,4-tetrahydroisoquinolin-7-yl)quinoline] | 10 to 1000 | 35 | 3 to 300 | 6.3 | 280 |  |  |  |  |  |  |  |  |
| COc1cc2ncc(C#N)c(Oc3ccc(S(C)(=N)=O)cc3)c2cc1F (stereo not shown) [Compound 44, 6-fluoro-7-methoxy-4-(4-(S-methylsulfonimidoyl)phenoxy)quinoline-3-carbonitrile] | 10 to 1000 | 15 | < 3 | 1.6 | 110 |  |  |  |  |  |  |  |  |
| COc1ccc2c(Oc3ccc(S(C)(=N)=O)cc3)ccnc2c1 (stereo not shown) [Compound 80, imino(4-((7-methoxyquinolin-4-yl)oxy)phenyl)(methyl)-λ^6-sulfanone] |  | 6.2 | < 3 | 1.1 | 29 | 1.4 | < 10 |  |  |  |  |  |  |
| COc1cc2nccc(Oc3ccc(S(C)(=N)=O)cc3)c2cc1OC (stereo not shown) [Compound 1, (4-((6,7-dimethoxyquinolin-4-yl)oxy)phenyl)(imino)(methyl)-λ^6-sulfanone] | 10 to 1000 | 17 | 3 to 300 | 3.5 | 61 | 17 |  | 5.1 |  |  |  |  |  |
| COc1ccc2c(OCc3ccc(S(C)(=N)=O)cc3F)ccnc2c1 (stereo not shown) [Compound 135, (3-fluoro-4-{[(7-methoxyquinolin-4-yl)oxy]methyl}phenyl)(imino)methyl-λ^6-sulfanone] |  | 7.8 | < 3 | 1.4 | 110 |  |  |  |  |  |  |  |  |
| COc1cc2ncnc(N3CCC4(CC3)CCN([S@@](C)(=N)=O)C4)c2cc1OC [Compound 54a] |  |  |  |  |  |  | < 10 |  | 0.34 | < 3 | 0.0075 | 0.32 |  |
| COc1cc2nccc(-c3ccc4c(c3)CN(S(C)(=N)=O)CC4)c2cc1OC (stereo not shown) [Compound 161, [7-(6,7-dimethoxyquinolin-4-yl)-1,2,3,4-tetrahydroisoquinolin-2-yl](imino)methyl-λ^6-sulfanone] |  | 1.3 | < 3 | 0.051 | 3.7 | 1.3 |  |  |  |  |  |  |  |
| COc1cc2nccc(Oc3ccc([S@@](C)(=N)=O)cc3)c2cc1OC [Compound 1S, (S)-(4-((6,7-dimethoxyquinolin-4-yl)oxy)phenyl)(imino)(methyl)-λ^6-sulfanone] | 10 to 1000 | 13 | < 3 | 0.87 | 45 |  |  |  |  |  |  |  |  |
| COc1cccc2c(N3CCC(CCS(C)(=N)=O)CC3)c(C#N)cnc12 (stereo not shown) [Compound 57, 8-methoxy-4-(4-(2-(S-methylsulfonimidoyl)ethyl)piperidin-1-yl)quinoline-3-carbonitrile] | 10 to 1000 | 31 | 3 to 300 | 5.3 | 120 |  |  |  |  |  |  |  |  |
| COc1cc2nccc(Oc3ccc([S@](C)(=N)=O)cc3)c2cc1F [Compound 114a] |  |  |  |  |  |  | < 10 |  | 0.94 | < 3 | 0.088 | 6.3 |  |
| COc1cc2nccc(N3CCC(CCS(C)(=N)=O)CC3)c2cc1Cl (stereo not shown) [Compound 141, {2-[1-(6-chloro-7-methoxyquinolin-4-yl)piperidin-4-yl]ethyl}(imino)methyl-λ^6-sulfanone] |  | 2.1 | < 3 | 0.25 | 16 |  |  |  |  |  |  |  |  |
| COc1cc2ncc(C#N)c(Oc3ccc([S@@](C)(=N)=O)cc3)c2cc1F [Compound 44a] |  |  |  |  |  |  | 10 to 1000 |  | 11 | < 3 | 1 | 110 |  |
| CC[S@](=N)(=O)c1ccc(Oc2ccnc3cc(OC)ccc23)cc1 [Compound 103b] |  |  |  |  |  |  | < 10 |  | 2.2 | < 3 | 0.31 | 30 |  |
| COc1ccc2c(OCc3ccc(S(C)(=N)=O)cc3)ccnc2c1 (stereo not shown) [Compound 75, imino(4-(((7-methoxyquinolin-4-yl)oxy)methyl)phenyl)(methyl)-λ^6-sulfanone] |  | 4.4 | < 3 | 0.49 | 31 |  | < 10 |  |  |  |  |  |  |
| COc1cc2nncc(Oc3ccc(S(C)(=N)=O)cc3)c2cc1OC (stereo not shown) [Compound 127, {4-[(6,7-dimethoxycinnolin-4-yl)oxy]phenyl}(imino)methyl-λ^6-sulfanone] | 10 to 1000 | 30 | 3 to 300 | 5 | 380 |  |  |  |  |  |  |  |  |
| COc1ccc2c(Oc3ccc(S(=N)(=O)C4CC4)cc3)ccnc2c1 (stereo not shown) [Compound 60, cyclopropyl(imino)(4-((7-methoxyquinolin-4-yl)oxy)phenyl)-λ^6-sulfanone] |  | 2.8 | < 3 | 0.34 | 23 |  | < 10 |  |  |  |  |  |  |
| COc1cc2nccc(Oc3ccc(S(C)(=N)=O)cc3)c2cc1F (stereo not shown) [Compound 114, {4-[(6-fluoro-7-methoxyquinolin-4-yl)oxy]phenyl}(imino)methyl-λ^6-sulfanone] |  | 2.8 | < 3 | 0.27 | 19 |  |  |  |  |  |  |  |  |
| COc1ccc2c(Oc3ccc(S(C)(=N)=O)cc3F)ccnc2c1 (stereo not shown) [Compound 12, (3-fluoro-4-((7-methoxyquinolin-4-yl)oxy)phenyl)(imino)(methyl)-λ^6-sulfanone] | 10 to 1000 | 30 | 3 to 300 | 8.6 | 190 |  |  |  |  |  |  |  |  |
| COc1cc2ncc(C#N)c(N3CCC(CCS(C)(=N)=O)CC3)c2cc1F (stereo not shown) [Compound 43, 6-fluoro-7-methoxy-4-(4-(2-(S-methylsulfonimidoyl)ethyl)piperidin-1-yl)quinoline-3-carbonitrile] |  | 3.9 | < 3 | 0.49 | 29 |  | < 10 |  |  |  |  |  |  |
| COc1cc2nccc(OCc3ccc(S(C)(=N)=O)cc3)c2cc1F (stereo not shown) [Compound 136] |  | 2 | < 3 | 0.32 | 29 |  | < 10 |  |  |  |  |  |  |
| COc1cc2ncnc(N3CCC4(CC3)CCN([S@](C)(=N)=O)C4)c2cc1OC [Compound 54b] |  |  |  |  |  |  | < 10 |  | 7.6 | < 3 | 1.3 | 130 |  |
| COc1cc2nccc(N3CCC(CCS(C)(=N)=O)CC3)c2cc1F (stereo not shown) [Compound 150, {2-[1-(6-fluoro-7-methoxyquinolin-4-yl)piperidin-4-yl]ethyl}(imino)methyl-λ^6-sulfanone] |  | 8.6 | < 3 | 1.3 | 62 |  |  |  |  |  |  |  |  |
| COc1cc2ncnc(-c3ccc4c(c3)CN(S(C)(=N)=O)CC4)c2cc1OC (stereo not shown) [Compound 37, 6,7-dimethoxy-4-(2-(S-methylsulfonimidoyl)-1,2,3,4-tetrahydroisoquinolin-7-yl)quinazoline] |  | 2.9 | < 3 | 0.41 | 28 |  | < 10 |  |  |  |  |  |  |
| COc1cc2nccc(Oc3ccc(S(N)(=O)=O)cc3)c2cc1OC [reference compound] |  |  |  |  | 380 | 190 |  |  |  |  |  |  | 32 |
| COc1cc2ncc(C#N)c(N3CCC4(CC3)CCN(S(N)(=O)=O)C4)c2cc1F [reference compound] |  |  |  |  | 24 | 2.9 |  |  |  |  |  |  | 0.47 |
| COc1ccc2c(Oc3ccc([S@@](C)(=N)=O)cc3)ccnc2c1 [Compound 80a] |  |  |  |  |  |  | < 10 |  | 2.2 | < 3 | 0.26 | 13 |  |
| COc1cc2ncc(C#N)c(N3CCC(CCS(C)(=N)=O)CC3)c2cc1Cl (stereo not shown) [Compound 152, 6-chloro-4-(4-{2-[imino(methyl)oxo-λ6-sulfanyl]ethyl}piperidin-1-yl)-7-methoxyquinoline-3-carbonitrile] |  | 2.4 | < 3 | 0.41 | 26 |  | < 10 |  |  |  |  |  |  |
| CCS(=N)(=O)c1ccc(Oc2ccnc3cc(OC)ccc23)cc1 (stereo not shown) [Compound 103, ethyl(imino)(4-((7-methoxyquinolin-4-yl)oxy)phenyl)-λ^6-sulfanone] |  | 9 | < 3 | 1.3 | 49 |  | < 10 |  |  |  |  |  |  |
| COc1ccc2c(N3CCC4(CC3)CCN(S(C)(=N)=O)C4)ccnc2c1 (stereo not shown) [Compound 55, 8-(7-methoxyquinolin-4-yl)-2-(S-methylsulfonimidoyl)-2,8-diazaspiro[4.5]decane] |  | 2 | < 3 | 0.14 | 25 |  | < 10 |  |  |  |  |  |  |
